Source: PMC9618981, “Impact of peptide permeation enhancer on tight junctions opening cellular mechanisms” (Biochemistry and Biophysics Reports, 2022)
Ends that are not written are not given here. Peptide text beside a SMILES is read from it. * marks the point of attachment. Myristoyl = CCCCCCCCCCCCCC(=O)*

Experiments:
Caco-2 cells = assay: Quantitative proteomic analysis (DIA LC-MS/MS) of Caco-2 cells; format: cell-based, human; conditions: Caco-2, 1 h
Experimental: For Western blot experiments, cells were seeded in 12-well plates (Merck, Schaffhausen, Switzerland) at a density of 50′000 cells/cm^2. For the proteomic experiments, the cells were seeded in T10 flasks (Merck, Schaffhausen, Switzerland) at the same initial seeding density. After 7 days and two washes with warm phosphate buffered saline (PBS, Thermofisher, Waltham, MA, USA), the conditions were applied for 1 h. Peptides were applied at a concentration between 20 and 100 μM. A chemical inhibitor of PKC ζ was also tested. The molecule 4f was used at a concentration of 10 μM in 0.1% DMSO as a positive control. All dilutions were done in 0.9% saline solution. After incubation, cells for Western blot experiments were lysed with RIPA buffer (Cell signalling, Danvers, MA, USA) containing protease and phosphatase inhibitors (Roche, Basel, Switzerland). After centrifugation to discard cell components, the samples were stored at −20 °C. Cells for proteomic analysis were detached with trypsin, washed 3 times with PBS and kept at −80 °C until analysis. Samples for proteomic analysis were produced in triplicate for each condition.
Cell pellets were resuspended in 100 μL of 0.1% RapiGest Surfactant (Waters, Milford, MA, USA) in 50 mM ammonium bicarbonate (AB). Samples were heated for 5 min at 100 °C. Lysis was performed by sonication (6 × 30 s) at 70% amplitude and 0.5 pulse. Samples were kept 30 s on ice between each cycle of sonication. Samples were centrifuged for 10 min at 14′000×g. Protein concentration was measured by Bradford assay and 25 μg of each sample was subjected to protein digestion as follows: the sample volume was adjusted to 100 μL with 0.1% RapiGest in 50 mM AB. 2 μL of 50 mM dithioerythritol (DTE) were added and the reduction was carried out at 60 °C for 1h. Alkylation was performed by adding 2 μL of iodoacetamide 400 mM during 1 h at room temperature in the dark. Overnight digestion was performed at 37 °C with 5 μL of freshly prepared trypsin (Promega AG, Dübendorf, Switzerland) in 50 mM AB at a concentration of 0.2 μg/μL. To remove RapiGest, samples were acidified with trifluoroacetic acid (TFA), heated at 37 °C for 45 min and centrifuged 10 min at 17′000×g. Supernatants were then desalted with a C18 microspin column (Harvard Apparatus, Holliston, MA, USA) according to the manufacturer's instructions, completely dried under speed-vacuum and stored at −20 °C.
Samples were diluted at 1 μg/μL with loading buffer (5% CH3CN, 0.1% FA). Biognosys iRT peptides were added to each sample and 2 μg of peptides were injected onto the column. LC-ESI-MS/MS was performed on an Orbitrap Fusion Lumos Tribrid mass spectrometer (Thermo Scientific, San Jose, CA, USA) equipped with an Easy nLC1200 liquid chromatography system (Thermo Scientific, San Jose, CA, USA). Peptides were trapped on an Acclaim pepmap100, C18, 3 μm, 75 μm × 20 mm nano trap-column (Thermofisher) and separated on a 75 μm × 500 mm, C18 ReproSil-Pur (Dr. Maisch GmbH, Ammerbuch, Germany), 1.9 μm, 100 Å, custom-made column. The analytical separation was run for 135 min using a gradient of H2O/FA 99.9%/0.1% (solvent A) and CH3CN/H2O/FA 80.0%/19.9%/0.1% (solvent B). The gradient was run from 8% B to 28% B in 110 min, then to 42% B in 25 min, then to 95%B in 5 min with a final stay of 20 min at 95% B. Flow rate was of 250 nL/min a total run time was of 160 min. Data-Independent Acquisition (DIA) was performed with MS1 full scan at a resolution of 60,000 (FWHM) followed by 30 DIA MS2 scan with fix windows. MS1 was performed in the Orbitrap with an automatic gain control (AGC) target of 1 × 10^6, a maximum injection time of 50 ms and a scan range from 400 to 1240 m/z. DIA MS2 was performed in the Orbitrap using higher-energy collisional dissociation (HCD) at 30%. Isolation window was set to 28 m/z with an AGC target of 1 × 10^6 and a maximum injection time of 54 ms. […]

[1] = system: ZO-1 expression in Caco-2 cells; assay: Immunoblot of total protein extracts from Caco-2 cells, ZO-1; format: cell-based, human; conditions: Caco-2, 1 h, peptides 50 μM, In 10 μM, normalised to actin
Experimental: (§1) Caco-2 cells (ATCC, Manassas, VA, USA) were cultured in T75 flasks (Merck, Schaffhausen, Switzerland). The cells were incubated at 37 °C and a humidified atmosphere containing 5% of CO2. The medium containing 10% fetal bovine serum (FBS, Thermofisher, Waltham, MA, USA) was changed every 2–3 days. The Caco-2 cells were passaged every 5 days. The passage numbers were between 33 and 36.
(§2) For Western blot experiments, cells were seeded in 12-well plates (Merck, Schaffhausen, Switzerland) at a density of 50′000 cells/cm^2. For the proteomic experiments, the cells were seeded in T10 flasks (Merck, Schaffhausen, Switzerland) at the same initial seeding density. After 7 days and two washes with warm phosphate buffered saline (PBS, Thermofisher, Waltham, MA, USA), the conditions were applied for 1 h. Peptides were applied at a concentration between 20 and 100 μM. A chemical inhibitor of PKC ζ was also tested. The molecule 4f was used at a concentration of 10 μM in 0.1% DMSO as a positive control. […]
(§3) 50 μg cell extracts and p-threonine proteins were separated by SDS-polyacrylamide gel electrophoresis (4–15%) (Bio-Rad, Hercules, CA, USA) and transferred to nitrocellulose membrane. […] These primary antibodies were then recognized by anti-mouse and anti-rabbit antibodies (Li-Cor Biosciences, Lincoln, NE, USA) and detected by Odyssey® imaging system (Li-Cor Biosciences). […]

[2] = system: occludin expression in Caco-2 cells; assay: Immunoblot of total protein extracts from Caco-2 cells, occludin; format: cell-based, human; conditions: Caco-2, 1 h, peptides 50 μM, In 10 μM
Experimental: as §1, §2, §3

[3] = previous studies; cited from earlier work
From the text: Previous studies have shown that ZIP is not specifically and competitively inhibiting PKC ζ phosphorylation of some TJ proteins (occludin and ZO-1). The structural similarities of the PS of the PKC family does explain this non-specificity. Therefore, L-R5 would also be competitive with other PKCs and would interfere with most intracellular mechanisms involving PKCs. […] Given the absence o ...

[4] = target: protein kinase C zeta (PKC ζ) (not stated (only the C-terminal fragment is called human)) (UniProt Q05513); assay: MST; PKC ζ labelled by RED-Tris-NTA on its His tag, fixed (20 nM with L-R5 at 0-4000 μM; 30 nM with occludin at 0-35000 nM); ligand in serial dilution; Tris buffer pH 7.4; hydrophilic capillaries; 20%, 40% and 80% MST power
[5] = target: protein kinase C zeta (PKC ζ) (not stated (only the C-terminal fragment is called human)) (UniProt Q05513); assay: MST; labelled PKC ζ fixed at 30 nM; occludin in serial dilution 0-11300 nM; L-R5 present as competitor at a fixed 1.25 mM; Tris buffer pH 7.4; hydrophilic capillaries
occludin = target: T1, occludin (UniProt Q16625 1-522); assay: MST; occludin labelled by RED-Tris-NTA on its His tag, fixed at 50 nM; L-R5 in serial dilution 0-25000 μM; Tris buffer pH 7.4; hydrophilic capillaries; 20%, 40% and 80% MST power; conditions: both partners purified
T1 chain: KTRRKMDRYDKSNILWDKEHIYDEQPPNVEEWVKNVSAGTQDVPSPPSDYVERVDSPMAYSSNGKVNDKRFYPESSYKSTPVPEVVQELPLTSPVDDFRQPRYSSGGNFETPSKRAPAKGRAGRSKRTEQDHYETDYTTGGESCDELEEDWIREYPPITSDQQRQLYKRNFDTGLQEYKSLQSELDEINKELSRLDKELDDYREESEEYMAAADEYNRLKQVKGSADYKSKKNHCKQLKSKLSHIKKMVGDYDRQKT

[6] = target: T2, PKC ζ-occludin interaction (Homo sapiens, UniProt Q16625); assay: Microscale thermophoresis (MST), interaction between PKC ζ and occludin, without and with L-R5 as competitor; format: binding; conditions: labelled PKC ζ 30 nM, occludin as ligand 0-35 μM, no competitor, Tris buffer pH 7.4, n = 2
T2 construct: purchased Eurofins pharma (PKC ζ); occludin source not clearly printed (probably RayBiotech); host or cells: Sf21 insect cells (PKC ζ)
T2 sequence (Q16625 266-522 limits assumed): T1 chain
Experimental: The protein construct of PKC ζ active (recombinant enzyme expressed in Sf21 insect cells) was purchased from Eurofins pharma (Dundee, United Kingdom) and the recombinant human […] was purchased from RayBiotech (Peachtree Corners, GA, USA). Fluorescent labelling of both, PKC ζ and occludin was performed following the protocol of coupling the His-tag labelling kit RED-Tris-NTA 2nd generation (Nanotemper Technologies, Munich, Germany) to their respective histidine tail. The fluorescence of the tagged proteins was then measured with the monolith NT.115 microscale thermophoresis instrument (Nanotemper Technologies, Munich, Germany). An excitation LED of 100% was set for the Cap. Scan. The predicted optimal dilution was then calculated to obtain a final fluorescence signal of 100 Raw fluorescence [counts].
Hydrophilic capillaries were used for the different tests because the samples interacted with standard capillaries. […] The different solutions were analysed by MST at 20%, 40% and 80% MST power with a 100% LED intensity. […] The results and Kd values were analysed by MO.affinity analysis 3 software (Nanotemper Technologies, Munich, Germany).
Microscale thermophoresis is a method used to quantify the affinity between two molecules (e.g., proteins) by increasing the concentration of the ligand while keeping the concentration of the target fixed. […]

## CC(C)(C)C1=NN(c2cccc(Cl)c2)C(c2ccc(F)c(O)c2)C1 (centres unmarked) [In, 5-(3-(tert-Butyl)-1-(3-chlorophenyl)-4,5-dihydro-1H-pyrazol-5-yl)-2-fluorophenol]
Caco-2 cells; L-R5 50 μM or In 10 μM, n = 3
  number of downregulated proteins versus control (log 2 (FC) < 0): 10 proteins
  number of upregulated proteins versus control (log 2 (FC) ≥ 0): 6 proteins
Caco-2 cells; L-R5 50 μM or In 10 μM, p ≤ 0.05, n = 3
  number of significantly differentially expressed proteins versus control: 16 proteins
Caco-2 cells; L-R5 50 μM, In 10 μM, n = 3
  expression of E1A binding protein p300 (proteomics): significantly decreased
  expression of ZO-1 (proteomics): no impact
  expression of occludin (proteomics): no impact
[1]
  expression of ZO-1 (Western blot): no effect
[2]
  TJ protein expression (occludin and ZO-1, Western blot, Fig. 3): did not result in a significant decrease
[2]; normalised to actin
  expression of occludin (Western blot): no effect

## CCCCCCCCCCCCCC(=O)N[C@@H](C)C(=O)N[C@@H](CCCNC(=N)N)C(=O)N[C@@H](CCCNC(=N)N)C(=O)N[C@@H](Cc1c[nH]c2ccccc12)C(=O)N[C@@H](CCCNC(=N)N)C(=O)O [L-R5] (Myristoyl-ARRWR-OH)
[3]
  in vitro cytotoxicity: absence of cytotoxicity

## occludin (from UniProt Q16625 1-522) (natural protein)
[4]
  Kd: 617 nM
[5]
  Kd: 2160 nM

B1: L-R5 (myr-ARRWR), myristoylated pentapeptide (peptide)
peptide: Myristoyl-ARRWR
notes: also called L-R5 peptide; source: synthetic peptide, obtained from Bachem AG
occludin
  Kd: 606000 nM

B2: occludin: tight junction protein, His-tagged recombinant, used as ligand and as labelled target in MST (protein, UniProt Q16625 1-522, looked up)
Occludin: MSSRPLESPPPYRPDEFKPNHYAPSNDIYGGEMHVRPMLSQPAYSFYPEDEILHFYKWTSPPGVIRILSMLIIVMCIAIFACVASTLAWDRGYGTSLLGGSVGYPYGGSGFGSYGSGYGYGYGYGYGYGGYTDPRAAKGFMLAMAAFCFIAALVIFVTSVIRSEMSRTRRYYLSVIIVSAILGIMVFIATIVYIMGVNPTAQSSGSLYGSQIYALCNQFYTPAATGLYVDQYLYHYCVVDPQEAIAIVLGFMIIVAFALIIFFAVKTRRKMDRYDKSNILWDKEHIYDEQPPNVEEWVKNVSAGTQDVPSPPSDYVERVDSPMAYSSNGKVNDKRFYPESSYKSTPVPEVVQELPLTSPVDDFRQPRYSSGGNFETPSKRAPAKGRAGRSKRTEQDHYETDYTTGGESCDELEEDWIREYPPITSDQQRQLYKRNFDTGLQEYKSLQSELDEINKELSRLDKELDDYREESEEYMAAADEYNRLKQVKGSADYKSKKNHCKQLKSKLSHIKKMVGDYDRQKT
modifications: His tag
notes: tight junction protein, His-tagged recombinant, used as ligand and as labelled target in MST
[6]
  Kd: 617 nM
